# Source: patent EP0399834B1, “1,2,4-Triazole derivatives, their preparation and their use for treating hypertension or respiratory tract disorders” (Beecham Group p.l.c., priority 1989, dated 1990)
# Test system: Spontaneously hypertensive rats
# Experiment: Antihypertensive activity: systolic blood pressure by tail cuff method
# Assay type: in vivo
# Conditions: maximum at 1-4 hours post dose
# Description: Systolic blood pressures were recorded by a modification of the tail cuff method described by I.M. Claxton, M.G. Palfreyman, R.H. Poyser, R.L. Whiting, European Journal of Pharmacology, 37, 179 (1976). A W+W BP recorder, model 8005 was used to display pulses. Prior to all measurements rats were placed in a heated environment (33.5 ± 0.5 °C) before transfer to a restraining cage. Each determination of blood pressure was the mean of at least 6 readings. Spontaneously hypertensive rats (ages 12-18 weeks) with systolic blood pressures >180 mmHg were considered hypertensive.
compound,measurement,setting,value
"Cn1nc(N)nc1N[C@@H]1c2cc(C#N)ccc2OC(C)(C)[C@H]1O (relative stereo) [Example E7, (3S,4R)-N⁵-[trans-4-(6-cyano-3,4-dihydro-2,2-dimethyl-2H-1-benzopyran-3-ol)]-1-methyl-1H-1,2,4-triazole-3,5-diamine]",% b.p. fall,Dose 0.05 mg/kg,45%
"Cc1nc(N[C@@H]2c3cc(C#N)ccc3OC(C)(C)[C@H]2O)n(C)n1 (relative stereo) [Example E4, trans-N⁵-4-[6-Cyano-3,4-dihydro-2,2-dimethyl-2H-benzopyran-3-ol]amino-1,3-dimethyl-1H-1,2,4-triazole]",% b.p. fall,Dose 1.0 mg/kg,22%
"Cn1ncnc1N[C@@H]1c2cc(C#N)ccc2OC(C)(C)[C@H]1O (relative stereo) [Example E2, trans-N⁵-4-[6-cyano-3,4-dihydro-2,2-dimethyl-2H-benzopyran-3-ol]amino-1-methyl-1H-1,2,4-triazole]",% b.p. fall,Dose 0.3 mg/kg,22%
"Cn1nc(N)nc1N[C@@H]1c2cc(C#N)ccc2OC(C)(C)[C@H]1O (relative stereo) [Example E1, N⁵-[trans-4-(6-Cyano-2,3-dihydro-2,2-dimethyl-2H-benzopyran-3-ol)]-1-methyl-1H-1,2,4-triazole-3,5-diamine]",% b.p. fall,Dose 0.1 mg/kg,30%
